Assay results as given in US20110027324A1, “O-DESMETHYL-V[…] TREATING MAJOR DEPRESSIVE DISORDER” (Wyeth LLC, priority 2007, published 2011).

Legend:
Type in all cases: in vivo, human
[1] = test system: subjects with a primary diagnosis of MDD; experiment: MDD Study No. 1: safety evaluation (AEs, DESS, laboratory, vital signs, ECG); details: for subjects with AEs as reason for study discontinuation: double-blind on-therapy period, placebo 3%; for subjects reporting serious or noteworthy AEs: none in placebo; for subjects with AEs of clinical importance: placebo 4
Method: On study day −1 (baseline), eligible subjects were randomly assigned to 1 of 2 fixed doses of ODV (50 or 100 mg/day) or to placebo for the 8-week double-blind treatment period. A 7-day taper period after the end of double-blind treatment was recommended but may have been omitted, shortened, or lengthened at the discretion of the investigator. Subjects assigned to the ODV 50 mg dose group received their maintenance dose beginning on study day 1 and continued this regimen until study day 56 or early withdrawal. For the taper period (days 1 through 7 after the end of the double-blind treatment period), they received 0 mg. Subjects assigned to the ODV 100 mg dose group were titrated to their maintenance dose. On study days 1 through 7 they received ODV 50 mg/day. Beginning on study day 8, they received their assigned dose of ODV 100 mg/day and continued on this regimen until study day 56 or early withdrawal. For the taper period (days 1 through 7 after the end of the double-blind treatment period), they received ODV 50 mg/day. Subjects assigned to placebo received their maintenance dose (0 mg) from study day 1 through day 56 or early withdrawal, and also received 0 mg during the taper period.
The safety of the two doses was determined using the following assessments: monitoring of adverse events (AEs), withdrawal because of AEs, concomitant medications, physical examinations, standard 12-lead electrocardiograms (ECGs), vital signs (supine and standing pulse rate and blood pressure (BP); body weight), laboratory determinations (hematology, blood chemistry, and urinalysis; free thyroxine index, including total thyroxine and triiodothyronine, and the β-HCG), and the Discontinuation-Emergent Signs and Symptoms (DESS) checklist.

[2] = test system: subjects with a primary diagnosis of MDD; experiment: MDD Study No. 3: efficacy evaluation, randomized double-blind placebo-controlled study; details: for CGI-S score, Δ from Baseline: baseline 4.3, placebo −1.10; for HAM-D6, Δ from Baseline: placebo −4.82; for MADRS total score, Δ from Baseline: placebo −11.0
Method: This example describes the results of a third multicenter, randomized, double-blind, placebo-controlled, parallel-group study that was also designed to evaluate the efficacy and safety of 50 and 100 mg/day ODV for treating MDD.
Subjects were male or female adults that met the same criteria as the subjects in Example 1. The administration protocols for 50 or 100 mg/day and placebo groups were the same as in Example 1.
The primary and secondary outcomes were the same as in Example 1 as were the statistical methods. A Global F-test was also used to analyze the results. The purpose of this test was to compare the two fixed doses with placebo to control for Type-I error. Statistical significance is met if the p-value for the Global F-test <0.05, followed by un-adjusted pairwise comparison between either dose and placebo at 0.05 significance level.

[3] = test system: subjects with a primary diagnosis of MDD; experiment: MDD Study No. 1: efficacy evaluation, randomized double-blind placebo-controlled 8-week study
Method: This example describes the results of a multicenter, randomized, double-blind, placebo-controlled, parallel-group study that was designed to evaluate the efficacy and safety of 50 and 100 mg/day ODV for treating MDD.
Subjects were male or female outpatients at least 18 years of age who had depressive symptoms for at least 30 days before the screening visit, and a primary diagnosis of MDD based on the criteria in the Diagnostic and Statistical Manual of Mental Disorders, Fourth edition (DSM-IV), single or recurrent episode, without psychotic features. Minimum screening and baseline scores of 20 on the Hamilton Rating Scale for Depression, 17-item (HAM-D17), of 2 on item 1 (depressed mood) on the HAM-D17, and of 4 on the Clinical Global Impressions Scale-Severity (CGI-S) were also required.
The planned enrollment was 480 subjects. A total of 703 subjects were screened for participation; 229 were screen failures and 474 were randomly assigned to treatment: 159 were assigned to receive placebo, 158 were assigned to receive ODV 50 mg/day; and 157 were assigned to receive ODV 100 mg/day. Twenty-three (23) of these 474 subjects were considered “no-data subjects” (randomized to treatment without information as to treatment). […]
The primary outcome variable was the HAM-D17 total score. The key secondary outcome variable was the Clinical Global Impressions Scale-Improvement (CGI-D score. Other secondary efficacy variables included the CGI-S, the Montgomery and Asberg Depression Rating Scale (MADRS) score, the HAM-D6 (Bech version: HAM-D17 items 1, 2, 7, 8, 10, and 13) score, the Covi Anxiety Scale total score, the remission rate (percentage of subjects with HAM-D17 scores of ≦7), response rates for the HAM-D17 (50% or greater change from baseline in the HAM-D17 total score), MADRS, and CGI-I, and the visual analog scale for pain intensity (VAS-PI). Self-administered health outcomes assessments were measured by the Sheehan Disability Scale (SDS) and the World Health Organization 5-Item Well-Being Index (WHO-5). […]

[4] = 50 mg group, number of subjects
[5] = 100 mg group, number of subjects

Compound: CN(C)CC(c1ccc(O)cc1)C1(O)CCCCC1 (stereo not drawn) [ODV, 1-[2-(dimethylamino)-1-(4-phenol)ethyl]-cyclohexanol]
- most common (incidence≧5%) taper/poststudy-emergent AEs ([1]; 50 mg group): diarrhea, nausea, abnormal dreams, dizziness, and hostility
- subjects with AEs as reason for study discontinuation ([1]; 50 mg group, 151 subjects): 3%
- p-value, mean DESS scores compared with placebo ([1]; 50 mg group, first week of the taper period): 0.001
- subjects with clinically important AE hypertension [1, 4]: 2
- subjects with clinically important AE hypotension [1, 4]: 2
- subjects with laboratory values considered clinically important by the medical monitor [1, 4]: 2
- subjects reporting serious or noteworthy AEs [1, 4]: 5
- subjects with AEs of clinical importance [1, 4]: 13
- subjects with AEs as reason for study discontinuation ([1]; 100 mg group, 148 subjects): 7%
- subjects with clinically important AE hypertension [1, 5]: 1
- subjects with laboratory values considered clinically important by the medical monitor [1, 5]: 3
- subjects reporting serious or noteworthy AEs [1, 5]: 4
- subjects with AEs of clinical importance [1, 5]: 10
- subjects with clinically important vital signs results ([1]; ODV treated subjects, both doses, 3 elevated supine BP, 1 postural hypotension): four
- clinically important findings for ECGs or ECG-related AEs ([1]; all subjects, 50 and 100 mg/day): None of the subjects had clinically important findings for ECGs
- HAM-D17 total score, Diff. versus Placebo (95% CI) ([2]; 50 mg/day, LOCF): 1.1 (−0.6, 2.7)
- HAM-D17 total score, Diff. versus Placebo (95% CI) ([2]; 50 mg/day, MMRM): 1.4 (−0.0, 2.8)
- HAM-D17 total score, Diff. versus Placebo (95% CI) ([2]; 50 mg/day, OC): 1.8 (−0.1, 3.6)
- CGI-S score, Δ from Baseline ([2]; 50 mg/day): −1.25
- HAM-D6, Δ from Baseline ([2]; 50 mg/day, baseline 12.8): −5.41
- MADRS total score, Δ from Baseline ([2]; 50 mg/day, baseline 30.1): −12.7
- HAM-D17 total score, Diff. versus Placebo (95% CI) ([2]; 100 mg/day, LOCF): 1.8 (0.2, 3.4)
- HAM-D17 total score, Diff. versus Placebo (95% CI) ([2]; 100 mg/day, MMRM): 2.2 (0.7, 3.6)
- HAM-D17 total score, Diff. versus Placebo (95% CI) ([2]; 100 mg/day, OC): 2.9 (1.0, 4.7)
- CGI-S score, Δ from Baseline ([2]; 100 mg/day): −1.44
- HAM-D6, Δ from Baseline ([2]; 100 mg/day, baseline 12.9): −6.15
- MADRS total score, Δ from Baseline ([2]; 100 mg/day, baseline 30.0): −14.4
- HAM-D17 total score, adjusted mean change from baseline ([3]; 50 mg/day, FOT evaluation, ANCOVA LOCF, placebo −9.53): −11.5
- HAM-D17 total score, adjusted mean change from baseline ([3]; 50 mg/day, week 8, mixed-effects model, placebo −9.86): −12.40
- HAM-D17 total score, adjusted mean change from baseline ([3]; 100 mg/day, week 8, mixed-effects model, placebo −9.86): −11.88
